How the values were obtained:
[1] = system: clk2 phosphorylation / exon 10 inclusion of the tau gene; test: Changing clk2 phosphorylation levels by kinase/phosphatase inhibitors; type: cell-based
[2] = system: tau exon 10 inclusion (SV10 minigene); test: RT-PCR of tau exon 10 minigene SV10 1:1 co-transfected with splicing regulator cDNA plasmids in COS cells; type: cell-based, human; conditions: 1:1 co-transfection, FIG. 4
Protocol: Plasmid DNA was purified by cesium chloride banding (Sambrook et al., 1989). The plasmids obtained in Examples 1 and 2 were introduced into cells by the lipofection method (LT1, Panvera).
Plates (100 mm) that had reached ˜30% confluence were transfected with 10 μg of construct DNA or 5 μg of each plasmid for co-transfections. The medium was changed 16 h after transfection, without glycerol shock.
Total RNA was isolated 48 h post-transfection by the TRIzol method (Life Technologies). […]
The RT-PCR experiments were done twice with the polyA^+ RNAs and with total RNAs from three independent transfections, to ensure reproducibility. […] In FIGS. 1-4, the percent of the 10^+ isoform was calculated by scanning the bands from three independent transfections and measuring the areas under the curves (by the IPLab Gel program from Scanalytics).
RT-PCR was performed in a manner as described in Example 4 (using primer pair: INS1/INS3), except that-mammalian cells were analyzed which had been 1:1 co-transfected with tau exon 10 containing minigene constructs (denoted SV 10) and with plasmids containing cDNA of various plicing regulators. […]

OC[C@H]1O[C@@H](n2cnc3cc(Cl)c(Cl)cc32)[C@H](O)[C@@H]1O [5,6-dichloro-1-b-D-ribofuranosylbenzimidazole]
controlled change of exon 10 inclusion of the tau gene via clk2 phosphorylation levels [1]: changing the clk2 phosphorylation levels

C=C1[C@@H](O)[C@@H]2O[C@]3(CC[C@H](/C=C/[C@@H](C)[C@@H]4CC(C)=C[C@@]5(O[C@H](C[C@@](C)(O)C(=O)O)CC[C@H]5O)O4)O3)CC[C@H]2O[C@@H]1[C@@H](O)C[C@H](C)[C@H]1O[C@@]2(CCCCO2)CC[C@H]1C [okadaic acid]
controlled change of exon 10 inclusion of the tau gene via clk2 phosphorylation levels [1]: changing the clk2 phosphorylation levels

ASF/SF2: serine/arginine-rich (SR) protein splicing regulator, expressed from cDNA under the CMV promoter
effect on tau exon 10 inclusion (10+/10- isoform ratio by RT-PCR) [2]: inhibited

From patent US20030170704A1, “Substance capable of controlling the inclusion of exon 10 of the tau gene, and its therapeutic use against tauopathies” (Max-Planck-Gesellschaft Zur Foerd Der Wissen. E.V., priority 1999, published 2003)
